This test deals with Propionibacterium acnes (ATCC 11828). Put plainly: Quantitative suspension assay (bactericidal activity). In kind it is cell-based. The settings on record: pH 5.5. The protocol:
1.0 ml of the bacterial test suspension (microbial count: 1.5−5.0×10^8 cfu/ml) and 1.0 ml distilled water is added to 8.0 ml of the product test solution. The stopwatch is started. At the end of the exposure time, 0.1 ml of the test mixture is added to 50 ml rinsing liquid (=test neutralization mixture, TNM, 10°). Two dilutions of the TNM are prepared by pipetting […] of TNM to 9.0 ml of tryptone-NaCl (represents a dilution 10^−2 of TNM before filtration) resp. 50 μl of TNM to 9.0 ml of tryptone-NaCl (represents a dilution 10^−3 of TNM before filtration). The TNM (in duplicate) and each of the dilutions are transferred to a membrane filter device fitted with a membrane filter (0.45 μm) and filtered immediately. Subsequently, the filter is washed with 150 ml distilled water. The membranes are transferred to agar plates. After incubation under appropriate conditions, colonies are counted and reported.
Neramexane-mesylate is tested at 4 different concentrations (w/w 0.1%, 0.5%, 2.0%, 5.0%) to assess its bactericidal activity against Propionibacterium acnes (ATCC 11828). In addition to the effect of the concentration of Neramexane, the relevance of the contact time with the bacterias is assessed at 4 different incubation times (5 min, 30 min, 6 h, 24 h).
After the desired incubation time, the complete elimination of the test compound from the assay is ensured by membrane filtration. Bacterial suspensions with a microbial count ranging from 1.5−5.0×10^8 cfu/ml are used. All assays are performed at the skin relevant pH of 5.5.
The read out is reduction of the bacterial number in the assay, expressed as log-reduction. This reduction of the bacterial count is correlated to the ability of a compound to kill the bacteria, thus, corresponding to its MBC value. A >5-fold log reduction is required for a surface-disinfection compound and a >3-fold log reduction for a hand-disinfection compound.

The compound `CC1(C)CC(C)(C)CC(C)(N)C1.CS(=O)(=O)O` [Neramexane mesylate] displayed a log-reduction (0.1%, contact time 5 min) below 1.41; a log-reduction (0.1%, contact time 30 min) below 1.41; a log-reduction (0.1%, contact time 6 h) below 1.41; a log-reduction (0.1%, contact time 24 h) below 1.41; a log-reduction (0.5%, contact time 5 min) below 1.41; a log-reduction (0.5%, contact time 30 min) below 1.41. This compound also yielded a log-reduction (0.5%, contact time 6 h) of 2.6; a log-reduction (2.0%, contact time 5 min) below 1.41; a log-reduction (2.0%, contact time 6 h) above 5.48; a log-reduction (2.0%, contact time 24 h) above 5.48; a log-reduction (5.0%, contact time 5 min) of 4.33; a log-reduction (5.0%, contact time 30 min) above 5.48. The log-reduction is, setting by setting: (5.0%, contact time 6 h) above 5.48; (5.0%, contact time 24 h) above 5.48.

Values taken from US20140228440A1, “1-AMINO-ALKYLCYCLOHEXANE DERIVATIVES FOR THE TREATMENT OF INFLAMMATORY SKIN DISEASES” (MERZ PHARMA GmbH & CO. KGaA, priority 2008, published 2014).
